Broadly, the Kd is a measure of binding affinity in units of concentration. A low value points to higher affinity.

No end group written: not given here.

Our source for the Kd values is PMC4319847 (PLoS ONE, 2015).

This test has as its target T1, ΔIBB-h-importin-α1 (Homo sapiens, UniProt P52292, DEL11-54).
T1 construct: IBB domain-truncated h-importin-α1 (Δ-h-importin-α1) (1–10, 55–529); GST (N, cleaved yes); His6 (C); made in house; host or cells: E. coli BL21 (DE3) Codonplus-RIL
In words: ITC binding of NLS peptides to ΔIBB-h-importin-α1.

In turn, KRPAATKKAGQAKKKK [nucleoplasmin NLS] yielded an equilibrium dissociation constant (Kd) of 140 ± 50 nM.
